Changes are numbered by the printed parent chain. Read-outs that look alike come from different tables or passages of the source.
Columns and labels:
NSD2 [1] = molecular target: T1, NSD2 (Homo sapiens, UniProt O96028, T1150A); assay: biochemical; set-up: MTase-Glo bioluminescence methyltransferase assay, full-length NSD2 with HeLa nucleosomes; conditions: read-out: MTase-Glo IC50
T1 construct: full length (residues 2-1365), N-terminal His tag, insect cell/baculovirus
T1 sequence (O96028 2-1365 T1150A): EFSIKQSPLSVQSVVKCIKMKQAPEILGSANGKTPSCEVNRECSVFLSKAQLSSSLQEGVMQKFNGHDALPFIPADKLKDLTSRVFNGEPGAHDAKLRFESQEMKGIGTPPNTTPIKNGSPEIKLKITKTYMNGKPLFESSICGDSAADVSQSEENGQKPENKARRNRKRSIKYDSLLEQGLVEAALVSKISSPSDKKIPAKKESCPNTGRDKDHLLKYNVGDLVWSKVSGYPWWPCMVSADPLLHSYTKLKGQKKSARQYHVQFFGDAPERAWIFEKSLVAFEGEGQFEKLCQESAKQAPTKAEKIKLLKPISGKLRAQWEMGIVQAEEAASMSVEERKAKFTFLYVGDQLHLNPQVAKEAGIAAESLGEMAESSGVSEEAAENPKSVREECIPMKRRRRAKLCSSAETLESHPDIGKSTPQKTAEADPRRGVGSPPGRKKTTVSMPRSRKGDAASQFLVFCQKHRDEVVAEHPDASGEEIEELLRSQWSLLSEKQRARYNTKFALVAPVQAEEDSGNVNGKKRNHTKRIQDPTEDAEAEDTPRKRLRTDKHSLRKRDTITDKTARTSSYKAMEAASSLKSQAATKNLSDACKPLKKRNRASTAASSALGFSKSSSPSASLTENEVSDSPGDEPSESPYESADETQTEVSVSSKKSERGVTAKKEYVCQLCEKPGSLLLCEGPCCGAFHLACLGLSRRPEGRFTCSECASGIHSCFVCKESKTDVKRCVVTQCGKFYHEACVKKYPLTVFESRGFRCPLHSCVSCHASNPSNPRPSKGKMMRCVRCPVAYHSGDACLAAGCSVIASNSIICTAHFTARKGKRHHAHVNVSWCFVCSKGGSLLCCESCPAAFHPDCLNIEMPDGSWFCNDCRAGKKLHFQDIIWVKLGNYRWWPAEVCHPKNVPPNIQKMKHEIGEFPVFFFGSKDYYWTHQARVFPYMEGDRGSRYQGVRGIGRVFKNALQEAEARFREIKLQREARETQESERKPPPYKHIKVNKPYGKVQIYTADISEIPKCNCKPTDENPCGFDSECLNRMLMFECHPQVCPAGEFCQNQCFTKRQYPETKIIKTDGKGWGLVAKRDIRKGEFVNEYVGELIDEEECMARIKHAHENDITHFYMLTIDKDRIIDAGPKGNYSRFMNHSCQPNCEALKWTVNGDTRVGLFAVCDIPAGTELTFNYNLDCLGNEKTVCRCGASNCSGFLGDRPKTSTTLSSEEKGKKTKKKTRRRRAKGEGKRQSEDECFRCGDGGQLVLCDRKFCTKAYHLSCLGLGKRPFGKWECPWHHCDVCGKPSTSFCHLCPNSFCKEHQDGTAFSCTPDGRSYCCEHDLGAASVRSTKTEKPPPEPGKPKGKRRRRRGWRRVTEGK
From the text: (§1) A major challenge in screening for small molecule inhibitors is that native NSD2 requires nucleosomes as a substrate ([17]). […] Chemical libraries were screened in 3-dose point quantitative high-throughput screening (qHTS) format ([43]) with the Methyltransferase-Glo (MTase-Glo™) methyltransferase bioluminescence assay ([44]). A number of counter and orthogonal assays were also developed to characterize the hits from the primary screen. Confirmed hits were validated with a radiolabeled SAM substrate-based NSD2 activity assay and further interrogated with binding studies by surface plasmon resonance (SPR), methyltransferase profiling, and activity assessments in U-2 OS cells. […] Overall the reaction conditions were very similar.

NSD2 [2] = molecular target: T2, NSD2 (Homo sapiens, UniProt O96028, E1099K); assay: biochemical; set-up: MTase-Glo bioluminescence methyltransferase assay, full-length NSD2 with HeLa nucleosomes; conditions: read-out: MTase-Glo IC50
T2 construct: full length (residues 2-1365), N-terminal His tag, insect cell/baculovirus
T2 sequence (O96028 2-1365 E1099K): T1 sequence (O96028 2-1365 T1150A) with E1098K, A1149T
From the text: as §1

CC1(C)CCC(CN2CCN(c3ccc(C(=O)NS(=O)(=O)c4ccc(NCC5CCOCC5)c([N+](=O)[O-])c4)c(Oc4cnc5[nH]ccc5c4)c3)CC2)=C(c2ccc(Cl)cc2)C1 [ABT-199]
IC50 (NSD2 [1]): 15 µM
IC50 (NSD2 [2]): 15 µM

O=C1C(Cl)=C(NCCN2CCOCC2)C(=O)c2ncccc21 [DA3003-1]
IC50 (NSD2 [1]; inhibitor): 2.9 µM
IC50 (NSD2 [2]; inhibitor): 2.8 µM
